ChEMBL document CHEMBL4680187, “Optimization of EphA2 antagonists based on a lithocholic acid core led to the identification of UniPR505, a new 3α-carbamoyloxy derivative with antiangiogenetic properties” (Eur J Med Chem, 2020)
Calls of active or inactive are those of the source. The rule behind the calls is not given here.

Key:
Ephrin type-A receptor 2 = Ephrin type-A receptor 2 (Mus musculus, UniProt Q03145); assay: Displacement of biotinylated ephrin-A1-Fc from recombinant mouse c-terminal His6-tagged EphA2 Fc (Ala22 to Ala535 residues) preincubated for 1 hr followed by ephrin-A1-FC addition and measured after 4 hrs by ELISA
PC-3 = assay: Cytotoxicity against human PC3 cells after 2 hrs by LDH assay; format: cell-based; conditions: pc-3, 2 h
Chorioallantoic membrane = assay: Antiangiogenic activity in Leghorn chicken fertilized egg chorioallantoic membrane assessed as reduction in unstimulated neovascularization at 10 uM measured after 3 days by CAM assay; format: functional, tissue-based; conditions: Gallus gallus, time 3.0 day

Ephrin type-A receptor 2, sequence (Q03145 whole entry): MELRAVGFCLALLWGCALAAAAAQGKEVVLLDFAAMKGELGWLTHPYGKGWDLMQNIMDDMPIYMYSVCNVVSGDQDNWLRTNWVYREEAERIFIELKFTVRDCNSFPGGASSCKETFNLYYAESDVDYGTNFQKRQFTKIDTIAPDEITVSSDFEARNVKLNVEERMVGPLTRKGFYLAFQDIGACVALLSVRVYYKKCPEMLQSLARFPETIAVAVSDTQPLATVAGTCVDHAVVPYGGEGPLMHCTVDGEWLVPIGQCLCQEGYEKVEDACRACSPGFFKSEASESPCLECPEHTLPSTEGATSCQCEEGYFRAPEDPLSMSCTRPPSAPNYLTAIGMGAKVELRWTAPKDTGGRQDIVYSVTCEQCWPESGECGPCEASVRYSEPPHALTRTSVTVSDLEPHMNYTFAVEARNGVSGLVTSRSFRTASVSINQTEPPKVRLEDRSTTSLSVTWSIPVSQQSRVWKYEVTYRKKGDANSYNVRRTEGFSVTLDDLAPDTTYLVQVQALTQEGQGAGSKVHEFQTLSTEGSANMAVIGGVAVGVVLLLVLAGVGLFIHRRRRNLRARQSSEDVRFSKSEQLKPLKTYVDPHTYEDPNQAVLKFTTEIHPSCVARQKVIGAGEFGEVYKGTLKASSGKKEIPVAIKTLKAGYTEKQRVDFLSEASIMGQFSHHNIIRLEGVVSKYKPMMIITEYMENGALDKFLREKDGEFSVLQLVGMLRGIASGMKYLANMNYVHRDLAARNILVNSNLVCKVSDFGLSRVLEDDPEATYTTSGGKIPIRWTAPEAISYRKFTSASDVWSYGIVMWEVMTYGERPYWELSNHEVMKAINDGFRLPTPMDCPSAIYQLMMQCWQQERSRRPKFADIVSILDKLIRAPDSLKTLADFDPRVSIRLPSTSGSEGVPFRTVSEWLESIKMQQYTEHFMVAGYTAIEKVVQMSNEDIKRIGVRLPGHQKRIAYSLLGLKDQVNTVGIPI

| SMILES | IC50 (Ephrin type-A receptor 2) | Activity (PC-3) | Activity (Chorioallantoic membrane) |
| --- | --- | --- | --- |
| CCNC(=O)O[C@@H]1CC[C@@]2(C)[C@H](CC[C@@H]3[C@@H]2CC[C@]2(C)[C@@H]([C@H](C)CCC(=O)O)CC[C@@H]32)C1 | 30 µM | – | – |
| CCCCCCCCNC(=O)O[C@@H]1CC[C@@]2(C)[C@H](CC[C@@H]3[C@@H]2CC[C@]2(C)[C@@H]([C@H](C)CCC(=O)O)CC[C@@H]32)C1 | 4.5 µM | – | – |
| C[C@H](CCC(=O)O)[C@H]1CC[C@H]2[C@@H]3CC[C@@H]4C[C@H](OC(=O)Nc5ccccc5)CC[C@]4(C)[C@H]3CC[C@]12C | 38 µM | – | – |
| C[C@H](CCC(=O)N[C@H](CC(=O)O)Cc1c[nH]c2ccccc12)[C@H]1CC[C@H]2[C@@H]3CC[C@@H]4C[C@H](OC(N)=O)CC[C@]4(C)[C@H]3CC[C@]12C | 1.2 µM | Non-Toxic | inactive |
| C[C@H](CCC(=O)N[C@H](CC(=O)O)Cc1c[nH]c2ccccc12)[C@H]1CC[C@H]2[C@@H]3CC[C@@H]4C[C@H](OC(=O)NC5CCCCC5)CC[C@]4(C)[C@H]3CC[C@]12C | 1.2 µM | Non-Toxic | – |
| C[C@H](CCC(=O)O)[C@H]1CC[C@H]2[C@@H]3CC[C@@H]4C[C@@H](OC(N)=O)CC[C@]4(C)[C@H]3CC[C@]12C | 9.1 µM | – | – |
| CCCCCCNC(=O)O[C@@H]1CC[C@@]2(C)[C@H](CC[C@@H]3[C@@H]2CC[C@]2(C)[C@@H]([C@H](C)CCC(=O)N[C@H](CC(=O)O)Cc4c[nH]c5ccccc45)CC[C@@H]32)C1 | 1.5 µM | Non-Toxic | – |
| C[C@H](CCC(=O)N[C@H](CC(=O)O)Cc1c[nH]c2ccccc12)[C@H]1CC[C@H]2[C@@H]3CC[C@@H]4C[C@H](OC(=O)Nc5ccccc5)CC[C@]4(C)[C@H]3CC[C@]12C | 5.5 µM | – | – |
| CCCCCCNC(=O)O[C@@H]1CC[C@@]2(C)[C@H](CC[C@@H]3[C@@H]2CC[C@]2(C)[C@@H]([C@H](C)CCC(=O)O)CC[C@@H]32)C1 | 3.3 µM | – | – |

Continued by falling IC50 (Ephrin type-A receptor 2), values first:

| IC50 (Ephrin type-A receptor 2) | SMILES | Activity (PC-3) | Activity (Chorioallantoic membrane) |
| --- | --- | --- | --- |
| 17 µM | C[C@H](CCC(=O)O)[C@H]1CC[C@H]2[C@@H]3CC[C@@H]4C[C@H](OC(N)=O)CC[C@]4(C)[C@H]3CC[C@]12C | – | – |
| 15 µM | CCCCCCCCNC(=O)O[C@@H]1CC[C@@]2(C)[C@H](CC[C@@H]3[C@@H]2CC[C@]2(C)[C@@H]([C@H](C)CCC(=O)N[C@H](CC(=O)O)Cc4c[nH]c5ccccc45)CC[C@@H]32)C1 | – | – |
| 12 µM | CC(C)NC(=O)O[C@@H]1CC[C@@]2(C)[C@H](CC[C@@H]3[C@@H]2CC[C@]2(C)[C@@H]([C@H](C)CCC(=O)O)CC[C@@H]32)C1 | – | – |
| 7.1 µM | CC(C)NC(=O)O[C@@H]1CC[C@@]2(C)[C@H](CC[C@@H]3[C@@H]2CC[C@]2(C)[C@@H]([C@H](C)CCC(=O)N[C@H](CC(=O)O)Cc4c[nH]c5ccccc45)CC[C@@H]32)C1 | – | – |
| 5.2 µM | C[C@H](CCC(=O)N[C@H](CC(=O)O)Cc1c[nH]c2ccccc12)[C@H]1CC[C@H]2[C@@H]3CC[C@@H]4C[C@@H](OC(N)=O)CC[C@]4(C)[C@H]3CC[C@]12C | – | – |
| 3.7 µM | CCCCNC(=O)O[C@@H]1CC[C@@]2(C)[C@H](CC[C@@H]3[C@@H]2CC[C@]2(C)[C@@H]([C@H](C)CCC(=O)O)CC[C@@H]32)C1 | – | – |
| 2.7 µM | C[C@H](CCC(=O)O)[C@H]1CC[C@H]2[C@@H]3CC[C@@H]4C[C@H](OC(=O)NC5CCCCC5)CC[C@]4(C)[C@H]3CC[C@]12C | – | – |
| 1.1 µM | CCCCNC(=O)O[C@@H]1CC[C@@]2(C)[C@H](CC[C@@H]3[C@@H]2CC[C@]2(C)[C@@H]([C@H](C)CCC(=O)N[C@H](CC(=O)O)Cc4c[nH]c5ccccc45)CC[C@@H]32)C1 | Non-Toxic | – |
